Reference: PMC7497180 (Chembiochem, 2020)
Entries after “also recorded” stand apart in the source; their conditions may differ.

Assays:
THP1‐NTR^+ cells [1] = experiment: CD86-based cell assay; conditions: for Selectivity window THP1^wt / THP1‐NTR^+: CD86 EC50 ratio; for EC50: 72 h, read-out: THP1‐NTR^+ CD86^+ EC50
THP1^wt cells [2] = experiment: MTS cell viability assay, non-transfected cells; type: cell-based
LSD1 = LSD1 (Homo sapiens, UniProt O60341); conditions: cited from earlier work
THP1^wt cells [3] = experiment: Colony forming unit
THP1‐NTR^+ cells [4] = experiment: MTS cell viability assay, NTR-expressing cells; type: cell-based
THP1‐NTR^+ cells [5] = experiment: Colony forming unit; type: cell-based; conditions: for EC50: read-out: THP1‐NTR^+ CFU EC50; for Selectivity window THP1^wt / THP1‐NTR^+: CFU EC50 ratio
THP1^wt cells [6] = experiment: CD86-based cell assay; conditions: 72 h, read-out: THP1^wt CD86^+ EC50
THP1‐NTR^+ cells [7] = experiment: Luminescent measurement of NTR activity in cells, NTR-expressing; type: cell-based; conditions: 25 μM, 60 min
THP1^wt cells [8] = experiment: Luminescent measurement of NTR activity in cells, non-transfected; type: cell-based; conditions: 25 μM, 60 min
recombinant NTR = experiment: Luminescent probe activation by recombinant NTR in vitro; type: biochemical, E. coli; conditions: low NTR concentrations (18–30 nM)
[9] = test system: mixtures of the cell lines THP1^wt and THP1‐NTR^+; experiment: Bystander effect in the CFU assay; type: cell-based; conditions: at 1.0 μM
[10] = molecular target: T1, nitroreductase NfsB (NTR) (Escherichia coli, UniProt P38489); type: biochemical, E. coli
T1 sequence (P38489 1-217): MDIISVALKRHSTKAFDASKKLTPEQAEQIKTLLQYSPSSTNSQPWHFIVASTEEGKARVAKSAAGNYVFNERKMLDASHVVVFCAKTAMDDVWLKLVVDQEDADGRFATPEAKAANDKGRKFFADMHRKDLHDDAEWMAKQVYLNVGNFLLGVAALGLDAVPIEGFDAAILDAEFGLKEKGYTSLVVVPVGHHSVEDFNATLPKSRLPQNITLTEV

[11] = 240 h, read-out: THP1^wt CFU EC50
[12] = read-out: THP1^wt CFU EC50, 10 days

Row | Compound | Selectivity window THP1^wt / THP1‐NTR^+ (THP1‐NTR^+ cells [1]) | EC50 (THP1‐NTR^+ cells [1]; Homo sapiens) | cytotoxicity in THP1^wt (in words) (THP1^wt cells [2]) | EC50 (THP1^wt cells [3]; [11]) | cytotoxicity in THP1‐NTR^+ (in words) (THP1‐NTR^+ cells [4]) | EC50 (THP1‐NTR^+ cells [5]; 240 h) | Selectivity window THP1^wt / THP1‐NTR^+ (THP1‐NTR^+ cells [5]) | EC50 (THP1^wt cells [6]; Homo sapiens) | probe conversion in NTR-expressing THP1 cells (in words) (THP1‐NTR^+ cells [7]) | probe conversion in nontransfected THP1^wt cells (in words) (THP1^wt cells [8]) | EC50 (THP1^wt cells [3]; [12]) | EC50 (THP1‐NTR^+ cells [5]; 10 days) | EC50 (THP1^wt cells [6]; FACS) | also measured
1 | COc1ncccc1CN[C@H]1[C@@H](C)[C@@H]1c1ccccc1 (relative stereo) [2 a, (1S*,2S*,3R*)‐N‐((2‐Methoxypyridin‐3‐yl) methyl)‐2‐methyl‐3‐phenylcyclo propan‐1‐amine] | 1±1 | 15.3 µM | no cytotoxic effect | 45.5 ± 3.2 µM | no cytotoxic effect | 32.4 ± 1.7 µM | 1±1 | 17.6 µM |  |  |  |  |  | THP1‐NTR^+ CD86^+ cells (THP1‐NTR^+ cells [1]; at 10 μM): 34%; LSD1 inhibition (in words) (LSD1): lack inhibitory activity on LSD1 in the low micromolar range; also recorded: inactive on LSD1 below 10 μM
2 | CN(CCN(C)C(=O)Oc1ccc2nc(C#N)sc2c1)C(=O)OCc1ccc([N+](=O)[O-])s1 [compound 5, 2‐Cyanobenzo[d]thiazol‐6‐yl ((5‐nitrothiophen‐2‐yl)methyl) ethane‐1,2‐diylbis(methyl carbamate)] |  |  |  |  |  |  |  |  | converted to luciferin | no activation |  |  |  | factor by which conversion exceeds that of probe 4 (recombinant NTR): at least 5
3 | (1‐Methyl‐2‐nitro‐1H‐imidazol‐5‐yl)methyl((2‐methoxypyridin‐3‐yl)methyl) ((1S*,2S*,3R*)‐2‐methyl‐3‐phenylcyclopropyl)carbamate [2 f] |  |  |  |  | cytotoxicity |  | >58±13 |  |  |  | > 50 µM | 0.9 ± 0.2 µM | > 50 µM | 
4 | COc1ncccc1CN[C@@H]1C[C@H]1c1ccccc1 (racemic) [1 a, trans‐N‐((2‐Methoxypyridin‐3‐yl) methyl)‐2‐phenylcyclopropan‐1‐amine, reference compound] |  | 0.0041 ± 0.0004 µM | no cytotoxic effect | 0.06 ± 0.02 µM | no cytotoxic effect | 0.04 ± 0.01 µM |  | 0.003 ± 0.0003 µM |  |  |  |  |  | EC50 (THP1^wt cells [3]; read-out: colony formation EC50): 0.068 ± 0.012 µM
5 | (1‐Methyl‐2‐nitro‐1H‐imidazol‐5‐yl)methyl((2‐methoxypyridin‐3‐yl)methyl) ((1S*,2R*)‐2‐phenylcyclopropyl)carbamate [1 f] | 66±8 |  |  |  | cytotoxic effects |  | 14±4 |  |  |  | 4.4 ± 0.7 µM | 0.33 ± 0.07 µM | 0.376 ± 0.017 µM | EC50 (THP1‐NTR^+ cells [1]; FACS): 0.0057 ± 0.0004 µM; bystander effect in the CFU assay [9]: no bystander effect; % conversion to 1a (fragmentation) ([10]; HPLC of Fmoc derivative 3 after NTR reaction, Figure 3C): 59.3%; factor of prodrug fragmentation relative to 4-nitrobenzyl 1 b ([10]; calculated from fragmentation data, Figure 3D): 17 x; effect on colony formation in THP1^wt (in words) (THP1^wt cells [3]): no effect in THP1^wt up to 2 μM
6 | N#Cc1nc2ccc(OCc3ccc([N+](=O)[O-])s3)cc2s1 [compound 4, 6‐((5‐Nitrothiophen‐2‐yl)methoxy)benzo[d]thiazole‐2‐carbonitrile] |  |  |  |  |  |  |  |  | converted to luciferin | no activation |  |  |  | 
